Activity calls are given as the source filed them. The rule behind the calls is not given here.
What was measured:
J774 = experiment: Cytotoxicity against mouse J774 cells expressing RANKL signaling by Alamar blue assay; assay type: functional, cell-based
[1] = Cytotoxicity against mouse osteoclast cells expressing RANKL signaling by Alamar blue assay; assay type: functional, cell-based
[2] = Cytotoxicity against mouse osteoblast cells by alamar blue assay; assay type: cell-based
[3] = Inhibition of NFkappa signaling in mouse macrophages assessed as reduction in TNF-alpha-induced IkapppaB phosphorylation at 10 uM pretreated for 1 hr before TNFalpha challenge by Western blotting
[4] = molecular target: T1, Tumor necrosis factor ligand superfamily member 11 (Mus musculus) (UniProt O35235); experiment: Inhibition of NFkappa signaling in mouse macrophages assessed as reduction in RANKL-induced IkapppaB phosphorylation at 10 uM pretreated for 1 hr before RANKL challenge by Western blotting
T1 sequence (whole entry): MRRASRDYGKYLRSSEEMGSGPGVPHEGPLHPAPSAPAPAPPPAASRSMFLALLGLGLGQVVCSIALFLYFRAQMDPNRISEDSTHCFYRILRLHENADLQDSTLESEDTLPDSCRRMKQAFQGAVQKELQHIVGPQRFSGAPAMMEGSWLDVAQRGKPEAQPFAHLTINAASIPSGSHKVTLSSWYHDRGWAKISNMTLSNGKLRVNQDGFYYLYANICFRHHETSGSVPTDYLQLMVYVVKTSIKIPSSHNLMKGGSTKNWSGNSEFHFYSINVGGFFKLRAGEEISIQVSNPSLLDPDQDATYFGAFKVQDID

Mus musculus [5] = experiment: Effect on ovariectomy-induced bone loss in mouse assessed as reduction in trabecular bone mineral density at 20 mg/kg/day, po (reference value: bone mineral density loss = 34%); assay type: functional, Trabecula; parameters: scale not given: the % may be the effect or the level left
Mus musculus [6] = experiment: Antiarthritic activity in mouse assessed as inhibition of collagen-induced arthritis at 10 mg/kg/day, po administered 15 days post collagen challenge; assay type: functional, organism-based
Mus musculus [7] = experiment: Antiarthritic activity in mouse assessed as inhibition of collagen-induced arthritis at 10 mg/kg/day, ip administered 15 days post collagen challenge; assay type: functional, organism-based
Mus musculus [8] = experiment: Anti-resorptive activity against ovariectomy-induced bone loss in mouse assessed as increase in trabecular bone mineral density at 20 mg/kg/day, po relative to untreated control; assay type: functional, Trabecula
[9] = Inhibition of NFkappa signaling in mouse macrophages assessed as reduction in TNF-alpha-induced IkapppaB phosphorylation at 50 uM pretreated for 1 hr before TNFalpha challenge by Western blotting
[10] = molecular target: T1, Tumor necrosis factor ligand superfamily member 11 (Mus musculus); experiment: Inhibition of NFkappa signaling in mouse macrophages assessed as reduction in RANKL-induced IkapppaB phosphorylation at 50 uM pretreated for 1 hr before RANKL challenge by Western blotting

Structure (SMILES)	IC50 (J774)	further results
OCCCCCC(O)c1ccc(-c2ccc(Cl)cc2)cc1 (stereo not given)	17 µM	–
COc1cc(F)ccc1-c1ccc(C(O)CCCCCO)cc1 (stereo not given)	70 µM	–
OCCCCCC(O)c1ccc(-c2ccc(Br)cc2)cc1 (stereo not given)	20 µM	–
OCCCCCC(O)c1ccc(-c2ccc(Cl)cc2Cl)cc1 (stereo not given)	8 µM	–
O=C(CCCCCO)c1ccc(-c2ccc(Cl)cc2Cl)cc1	8 µM	IC50 [1]: 0.8 µM; IC50 [2]: > 100 µM; inhibition [3]: Active; inhibition [4]: Active; Activity (Mus musculus [5]): -6%; inhibition (Mus musculus [6]): Active; inhibition (Mus musculus [7]): Active; Activity (Mus musculus [8]): 6%
Cc1cc(C(O)CCCCCO)ccc1-c1ccc(F)cc1F (stereo not given)	8 µM	IC50 [1]: 1.3 µM; IC50 [2]: > 100 µM
Cc1cc(F)ccc1-c1ccc(C(=O)CCCCCO)cc1	20 µM	–
Cc1cc(C(=O)CCCCCO)ccc1-c1ccc(F)cc1F	8 µM	IC50 [1]: 1.5 µM; inhibition [3]: Active; inhibition [4]: Active; inhibition (Mus musculus [6]): Active
OCCCCCC(O)c1ccc(-c2ccc(F)cc2)cc1Cl (stereo not given)	8 µM	–
CCOc1ccc(-c2ccc(C(O)CCCCCO)cc2)cc1 (stereo not given)	14 µM	–
O=C(CCCCCO)c1ccc(-c2ccc(F)cc2F)cc1Cl	7 µM	IC50 [1]: 3 µM; IC50 [2]: > 100 µM; Activity (Mus musculus [8]): -3%
Cc1cc(S(=O)(=O)NCCCCO)ccc1-c1ccc(F)cc1F	–	inhibition (Mus musculus [6]): Active
O=C(CCCCCO)c1ccc(-c2ccccc2)cc1	22 µM	IC50 [1]: 9 µM; IC50 [2]: > 100 µM; Activity (Mus musculus [5]): 21%
O=C(CCCCCO)c1ccc(-c2ccc(C(F)(F)F)cc2C(F)(F)F)cc1	23 µM	–
OCCCCCC(O)c1ccc(-c2ccc(O)cc2)cc1 (stereo not given)	15 µM	–
Cc1ccc(-c2ccc(C(O)CCCCCO)cc2)cc1 (stereo not given)	22 µM	–
O=C(CCCCCO)c1ccc(-c2ccc(F)c(F)c2)cc1	20 µM	–
Cc1ccccc1-c1ccc(C(O)CCCCCO)cc1 (stereo not given)	24 µM	–
CSc1ccc(-c2ccc(C(O)CCCCCO)cc2)cc1 (stereo not given)	24 µM	–
OCCCCCC(O)c1ccc(-c2ccc(OC(F)(F)F)cc2)cc1 (stereo not given)	14 µM	–

Structure (SMILES)	IC50 (J774)	further results
OCCCCCC(O)c1ccc(-c2cccc(Cl)c2)cc1 (stereo not given)	> 100 µM	–
OCCCCCC(O)c1ccc(-c2ccc(C(F)(F)F)cc2)cc1 (stereo not given)	13 µM	–
OCCCCCC(O)c1ccc(-c2ccccc2O)cc1 (stereo not given)	40 µM	–
O=C(CCCCCO)c1ccc(-c2ccc(F)cc2F)cc1	6 µM	IC50 [1]: 2 µM; IC50 [2]: > 100 µM; Activity (Mus musculus [5]): 10%
Cc1cc(-c2ccc(F)cc2F)ccc1C(=O)CCCCCO	4 µM	–
Cc1cc(F)ccc1-c1ccc(C(O)CCCCCO)cc1 (stereo not given)	20 µM	–
CN(C)c1ccc(-c2ccc(C(O)CCCCCO)cc2)cc1 (stereo not given)	28 µM	–
O=C(CCCCCO)c1ccc(-c2ccc(F)cc2Cl)cc1	15 µM	–
OCCCCCC(O)c1ccc(-c2ccccc2)c(F)c1 (stereo not given)	17 µM	–
COc1ccc(-c2ccc(C(=O)CCCCCO)cc2)c(OC)c1	50 µM	IC50 [1]: 13 µM
Cc1cccc(-c2ccc(C(=O)CCCCCO)cc2)c1	100 µM	inhibition [9]: inactive; inhibition [10]: inactive
OCCCCCC(O)c1ccc(-c2ccc(F)cc2)cc1 (stereo not given)	18 µM	–
Cc1cccc(-c2ccc(C(O)CCCCCO)cc2)c1 (stereo not given)	> 100 µM	–
OCCCCCCc1ccc(-c2ccccc2)cc1	–	inhibition [3]: inactive; inhibition [9]: inactive; inhibition [10]: inactive
OCCCCCC(O)c1ccc(-c2ccccc2F)cc1 (stereo not given)	22 µM	–
COc1ccc(-c2ccc(C(=O)CCCCCO)cc2)cc1OC	60 µM	IC50 [1]: 14 µM
OCCCCCC(O)c1ccc(-c2ccccc2)cc1 (stereo not given)	22 µM	IC50 [1]: 8 µM; IC50 [2]: > 100 µM
OCCCCCC(O)c1ccc(-c2ccc(F)cc2)cc1F (stereo not given)	14 µM	–
OCCCCCC(O)c1ccc(-c2ccc(F)cc2F)cc1 (stereo not given)	8 µM	–
